Results published in PubChem BioAssay (NCI).
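How tested: cells in 96-well plates exposed to compound for 48 hours at five concentrations. The concentration for full growth arrest is given as TGI.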

Tests used:
Assay in all cases: NCI-60 cell line screen, 48 h
[1] = test system: SK-MEL-2 melanoma
[2] = test system: SK-OV-3 ovarian
[3] = test system: SN12C renal
[4] = test system: HCT-116 colon
[5] = test system: SK-MEL-5 melanoma
[6] = test system: OVCAR-5 ovarian
[7] = test system: A498 renal
[8] = test system: ACHN renal
[9] = test system: IGROV1 ovarian
[10] = test system: MDA-MB-435
[11] = test system: EKVX NSCLC
[12] = test system: OVCAR-4 ovarian
[13] = test system: OVCAR-8 ovarian
[14] = test system: SW-620 colon
[15] = test system: RPMI-8226 leukemia
[16] = test system: MOLT-4 leukemia
[17] = test system: KM12 colon
[18] = test system: CCRF-CEM leukemia
[19] = test system: SNB-75 CNS
[20] = test system: PC-3 prostate
[21] = test system: HCT-15 colon
[22] = test system: A549 NSCLC
[23] = test system: UACC-62 melanoma
[24] = test system: NCI-H522 lung
[25] = test system: UACC-257 melanoma
[26] = test system: SNB-19 CNS
[27] = test system: U251 CNS
[28] = test system: M14 melanoma
[29] = test system: SF-539 CNS
[30] = test system: MCF7 breast
[31] = test system: NCI-H23 lung
[32] = test system: MDA-N
[33] = test system: LOX IMVI melanoma
[34] = test system: TK-10 renal
[35] = test system: OVCAR-3 ovarian
[36] = test system: SF-295 CNS
[37] = test system: COLO 205 colon
[38] = test system: T-47D breast
[39] = test system: NCI-H226 lung
[40] = test system: MALME-3M melanoma
[41] = test system: SK-MEL-28 melanoma
[42] = test system: K-562 leukemia
[43] = test system: HL-60(TB) leukemia
[44] = test system: DU-145 prostate
[45] = test system: MDA-MB-231 breast
[46] = test system: NCI-H460 lung
[47] = test system: RXF 393 renal
[48] = test system: NCI/ADR-RES ovarian
[49] = test system: UO-31 renal
[50] = test system: SF-268 CNS
[51] = test system: SR leukemia
[52] = test system: HT29 colon
[53] = test system: 786-0 renal
[54] = test system: HCC-2998 colon
[55] = test system: HS 578T breast
[56] = test system: HOP-62 NSCLC
[57] = test system: CAKI-1 renal
[58] = test system: HOP-92 NSCLC

## COC1=CC(=O)c2c(cc(COP(N)(=O)N(CCBr)CCBr)n2C)C1=O (stereo not drawn)
[1]
  TGI: 3.57 µM
[2]
  TGI: 1.15 µM
[3]
  TGI: 1.08 µM
[4]
  TGI: 0.131 µM
[5]
  TGI: 2.2 µM
[6]
  TGI: 1.06 µM
[7]
  TGI: 2.88 µM
[8]
  TGI: 0.0219 µM
[9]
  TGI: 2.8 µM
[10]
  TGI: 2.42 µM
[11]
  TGI: 0.207 µM
[12]
  TGI: 10.5 µM
[13]
  TGI: 1.2 µM
[14]
  TGI: 1.48 µM
[15]
  TGI: 1.16 µM
[16]
  TGI: > 100 µM
[17]
  TGI: 4.72 µM
[18]
  TGI: 0.771 µM
[19]
  TGI: 1.19 µM
[20]
  TGI: 4.62 µM
[21]
  TGI: 2.5 µM
[22]
  TGI: 1.71 µM
[23]
  TGI: 1.47 µM
[24]
  TGI: 0.188 µM
[25]
  TGI: 4.44 µM
[26]
  TGI: 8.28 µM
[27]
  TGI: 0.859 µM
[28]
  TGI: 0.633 µM
[29]
  TGI: 0.133 µM
[30]
  TGI: 16.1 µM
[31]
  TGI: 2.67 µM
[32]
  TGI: 2.24 µM
[33]
  TGI: 0.121 µM
[34]
  TGI: 3.43 µM
[35]
  TGI: 0.651 µM
[36]
  TGI: 0.225 µM
[37]
  TGI: 0.144 µM
[38]
  TGI: 2.98 µM
[39]
  TGI: 1.17 µM
[40]
  TGI: 1.86 µM
[41]
  TGI: 3.1 µM
[42]
  TGI: > 100 µM
[43]
  TGI: 3.64 µM
[44]
  TGI: 1.41 µM
[45]
  TGI: 7.1 µM
[46]
  TGI: 5.38 µM
[47]
  TGI: 1.49 µM
[48]
  TGI: 7.86 µM
[49]
  TGI: 3.66 µM
[50]
  TGI: 1.8 µM
[51]
  TGI: 1.6 µM
[52]
  TGI: 1.05 µM

## CCOC(CNc1nn2c(C)nnc2s1)OCC
[1]
  TGI: > 100 µM
[2]
  TGI: > 100 µM
[3]
  TGI: > 100 µM
[4]
  TGI: > 100 µM
[5]
  TGI: > 100 µM
[6]
  TGI: > 100 µM
[7]
  TGI: > 100 µM
[8]
  TGI: > 100 µM
[9]
  TGI: > 100 µM
[10]
  TGI: > 100 µM
[53]
  TGI: > 100 µM
[11]
  TGI: > 100 µM
[12]
  TGI: > 100 µM
[13]
  TGI: > 100 µM
[54]
  TGI: > 100 µM
[14]
  TGI: > 100 µM
[15]
  TGI: > 100 µM
[16]
  TGI: > 100 µM
[17]
  TGI: > 100 µM
[18]
  TGI: > 100 µM
[19]
  TGI: > 100 µM
[20]
  TGI: > 100 µM
[21]
  TGI: > 100 µM
[55]
  TGI: > 100 µM
[22]
  TGI: > 100 µM
[56]
  TGI: > 100 µM
[23]
  TGI: > 100 µM
[24]
  TGI: > 100 µM
[25]
  TGI: > 100 µM
[26]
  TGI: > 100 µM
[27]
  TGI: > 100 µM
[28]
  TGI: > 100 µM
[57]
  TGI: > 100 µM
[29]
  TGI: > 100 µM
[30]
  TGI: > 100 µM
[31]
  TGI: > 100 µM
[58]
  TGI: > 100 µM
[32]
  TGI: > 100 µM
[33]
  TGI: > 100 µM
[34]
  TGI: > 100 µM
[35]
  TGI: > 100 µM
[36]
  TGI: > 100 µM
[37]
  TGI: > 100 µM
[39]
  TGI: > 100 µM
[40]
  TGI: > 100 µM
[41]
  TGI: > 100 µM
[42]
  TGI: > 100 µM
[43]
  TGI: > 100 µM
[44]
  TGI: > 100 µM
[45]
  TGI: > 100 µM
[46]
  TGI: > 100 µM
[47]
  TGI: > 100 µM
[48]
  TGI: > 100 µM
[50]
  TGI: > 100 µM
[51]
  TGI: > 100 µM
[52]
  TGI: > 100 µM

## O=c1c2ccccc2n2c(-c3ccc(O)cc3)nnc2n1-c1ccccc1
[1]
  TGI: 40.9 µM
[2]
  TGI: 38.3 µM
[3]
  TGI: 32.2 µM
[4]
  TGI: 41.2 µM
[5]
  TGI: 37.2 µM
[6]
  TGI: > 100 µM
[7]
  TGI: 31.6 µM
[8]
  TGI: 30 µM
[9]
  TGI: 34.9 µM
[10]
  TGI: 36.2 µM
[53]
  TGI: 33.7 µM
[11]
  TGI: 34.7 µM
[12]
  TGI: 45.3 µM
[13]
  TGI: 90.6 µM
[54]
  TGI: > 100 µM
[14]
  TGI: 29.8 µM
[16]
  TGI: > 100 µM
[17]
  TGI: > 100 µM
[18]
  TGI: 51.3 µM
[19]
  TGI: 38.5 µM
[20]
  TGI: 33.6 µM
[21]
  TGI: 50.7 µM
[22]
  TGI: 38.6 µM
[56]
  TGI: 41 µM
[23]
  TGI: 38.9 µM
[24]
  TGI: 38.8 µM
[25]
  TGI: 41.8 µM
[26]
  TGI: 39.7 µM
[27]
  TGI: 32.4 µM
[28]
  TGI: 39.8 µM
[57]
  TGI: 65 µM
[29]
  TGI: 33.9 µM
[31]
  TGI: 37.7 µM
[58]
  TGI: 45.6 µM
[32]
  TGI: 34.1 µM
[33]
  TGI: 55.4 µM
[34]
  TGI: 43.5 µM
[35]
  TGI: 39.5 µM
[36]
  TGI: 31.5 µM
[37]
  TGI: > 100 µM
[38]
  TGI: 34.8 µM
[39]
  TGI: 53.6 µM
[40]
  TGI: 42.6 µM
[41]
  TGI: 43.3 µM
[42]
  TGI: 26.2 µM
[43]
  TGI: > 100 µM
[44]
  TGI: 40.1 µM
[45]
  TGI: 40.3 µM
[46]
  TGI: 40 µM
[47]
  TGI: 39.4 µM
[48]
  TGI: 48.5 µM
[49]
  TGI: 6.83 µM
[50]
  TGI: 38.9 µM
[51]
  TGI: 46.2 µM
[52]
  TGI: 43.9 µM
